Measured values reported in patent US5672715A, “Herbicidal substituted 3-aryl-pyrazoles” (Monsanto Company, priority 1995, dated 1997).
Where two headings read alike, the source gives them in different places.

Legend:
Assay type in all cases: in vivo
Corn [1] = assay: pre-emergence herbicide test; settings: Zea mays, pre-emergence, read-out: % plant inhibition
Summary of the method: (§1)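 Pre-emergence soil treatment: seeds on compacted topsoil, cover layer dosed with test compound in organic solvent (e.g. acetone) or water. Greenhouse, subirrigated as needed, sometimes 1/4 inch overhead water right after treatment. Read-out ~14 d: % inhibition.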

Soybean [2] = assay: pre-emergence herbicide test; settings: Glycine max, pre-emergence, read-out: % plant inhibition
Summary of the method: as §1

Cocklebur = assay: pre-emergence herbicide test; settings: Xanthium strumarium, pre-emergence, read-out: % plant inhibition
Summary of the method: as §1

Rice = assay: pre-emergence herbicide test; settings: Oryza sativa, read-out: % plant inhibition
Summary of the method: as §1

Morning Glory = assay: pre-emergence herbicide test; settings: Ipomoea, pre-emergence, read-out: % plant inhibition
Summary of the method: as §1

Yellow Foxtail [3] = assay: pre-emergence herbicide test; settings: Setaria, read-out: % plant inhibition
Summary of the method: as §1

Barnyardgrass [4] = assay: pre-emergence herbicide test; settings: Echinochloa crus-galli, pre-emergence, read-out: % plant inhibition
Summary of the method: as §1

Velvetleaf [5] = assay: pre-emergence herbicide test; settings: Abutilon theophrasti, pre-emergence, read-out: % plant inhibition
Summary of the method: as §1

Yellow Nutsedge = assay: pre-emergence herbicide test; settings: Cyperus, read-out: % plant inhibition
Summary of the method: as §1

Corn [6] = assay: post-emergence herbicide test; settings: Zea mays, post-emergence, read-out: % plant inhibition
Summary of the method: (§2)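 Seeds sown on compacted topsoil, covered, leveled; greenhouse, overhead or subirrigation. Plants 2–3 wk old → atomizer spray, 170.3 kPa, 1870 L/Ha, ~0.4% v/v emulsifier. Readout: % inhibition.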

Wheat = assay: post-emergence herbicide test; settings: Triticum aestivum, post-emergence, read-out: % plant inhibition
Summary of the method: as §2

Soybean [7] = assay: post-emergence herbicide test; settings: Glycine max, post-emergence, read-out: % plant inhibition
Summary of the method: as §2

Yellow Foxtail [8] = assay: post-emergence herbicide test; settings: Setaria, read-out: % plant inhibition
Summary of the method: as §2

Barnyardgrass [9] = assay: post-emergence herbicide test; settings: Echinochloa crus-galli, post-emergence, read-out: % plant inhibition
Summary of the method: as §2

Velvetleaf [10] = assay: post-emergence herbicide test; settings: Abutilon theophrasti, post-emergence, read-out: % plant inhibition
Summary of the method: as §2

Blackgrass = assay: post-emergence herbicide test; settings: Alopecurus myosuroides, post-emergence, read-out: % plant inhibition; for inhibition at 40.0143 g/ha: 0.0357 lb/A; for inhibition at 200.072 g/ha: 0.1785 lb/A; for inhibition at 1000.92 g/ha: 0.893 lb/A; for inhibition at 5043.82 g/ha: 4.5 lb/A
Summary of the method: as §2

Compound: Cc1c(-c2cc(O)c(Cl)cc2F)nn(C)c1C(F)(F)F [Compound 40]
- inhibition at 40.0143 g/ha (Corn [1]; 0.0357 lb/A): 0%
- inhibition at 200.072 g/ha (Corn [1]; 0.1785 lb/A): 0%
- inhibition at 1000.92 g/ha (Corn [1]; 0.893 lb/A): 5%
- inhibition at 5043.82 g/ha (Corn [1]; 4.5 lb/A): 85%
- inhibition at 40.0143 g/ha (Soybean [2]; 0.0357 lb/A): 0%
- inhibition at 200.072 g/ha (Soybean [2]; 0.1785 lb/A): 0%
- inhibition at 1000.92 g/ha (Soybean [2]; 0.893 lb/A): 20%
- inhibition at 5043.82 g/ha (Soybean [2]; 4.5 lb/A): 20%
- inhibition at 40.0143 g/ha (Cocklebur; 0.0357 lb/A): 0%
- inhibition at 200.072 g/ha (Cocklebur; 0.1785 lb/A): 0%
- inhibition at 1000.92 g/ha (Cocklebur; 0.893 lb/A): 45%
- inhibition at 5043.82 g/ha (Cocklebur; 4.5 lb/A): 100%
- inhibition at 40.0143 g/ha (Rice; 0.0357 lb/A): 0%
- inhibition at 200.072 g/ha (Rice; 0.1785 lb/A): 0%
- inhibition at 1000.92 g/ha (Rice; 0.893 lb/A): 0%
- inhibition at 5043.82 g/ha (Rice; 4.5 lb/A): 65%
- inhibition at 40.0143 g/ha (Morning Glory; 0.0357 lb/A): 0%
- inhibition at 200.072 g/ha (Morning Glory; 0.1785 lb/A): 0%
- inhibition at 1000.92 g/ha (Morning Glory; 0.893 lb/A): 50%
- inhibition at 5043.82 g/ha (Morning Glory; 4.5 lb/A): 100%
- inhibition at 40.0143 g/ha (Yellow Foxtail [3]; 0.0357 lb/A): 0%
- inhibition at 200.072 g/ha (Yellow Foxtail [3]; 0.1785 lb/A): 0%
- inhibition at 1000.92 g/ha (Yellow Foxtail [3]; 0.893 lb/A): 80%
- inhibition at 5043.82 g/ha (Yellow Foxtail [3]; 4.5 lb/A): 100%
- inhibition at 40.0143 g/ha (Barnyardgrass [4]; 0.0357 lb/A): 0%
- inhibition at 200.072 g/ha (Barnyardgrass [4]; 0.1785 lb/A): 0%
- inhibition at 1000.92 g/ha (Barnyardgrass [4]; 0.893 lb/A): 35%
- inhibition at 5043.82 g/ha (Barnyardgrass [4]; 4.5 lb/A): 100%
- inhibition at 40.0143 g/ha (Velvetleaf [5]; 0.0357 lb/A): 0%
- inhibition at 200.072 g/ha (Velvetleaf [5]; 0.1785 lb/A): 0%
- inhibition at 1000.92 g/ha (Velvetleaf [5]; 0.893 lb/A): 60%
- inhibition at 5043.82 g/ha (Velvetleaf [5]; 4.5 lb/A): 100%
- inhibition at 40.0143 g/ha (Yellow Nutsedge; 0.0357 lb/A): 0%
- inhibition at 200.072 g/ha (Yellow Nutsedge; 0.1785 lb/A): 0%
- inhibition at 1000.92 g/ha (Yellow Nutsedge; 0.893 lb/A): 70%
- inhibition at 5043.82 g/ha (Yellow Nutsedge; 4.5 lb/A): 0%
- inhibition at 40.0143 g/ha (Corn [6]; 0.0357 lb/A): 25%
- inhibition at 200.072 g/ha (Corn [6]; 0.1785 lb/A): 45%
- inhibition at 1000.92 g/ha (Corn [6]; 0.893 lb/A): 85%
- inhibition at 5043.82 g/ha (Corn [6]; 4.5 lb/A): 50%
- inhibition at 40.0143 g/ha (Wheat; 0.0357 lb/A): 0%
- inhibition at 200.072 g/ha (Wheat; 0.1785 lb/A): 15%
- inhibition at 1000.92 g/ha (Wheat; 0.893 lb/A): 20%
- inhibition at 5043.82 g/ha (Wheat; 4.5 lb/A): 25%
- inhibition at 40.0143 g/ha (Soybean [7]; 0.0357 lb/A): 25%
- inhibition at 200.072 g/ha (Soybean [7]; 0.1785 lb/A): 30%
- inhibition at 1000.92 g/ha (Soybean [7]; 0.893 lb/A): 70%
- inhibition at 5043.82 g/ha (Soybean [7]; 4.5 lb/A): 80%
- inhibition at 40.0143 g/ha (Yellow Foxtail [8]; 0.0357 lb/A): 0%
- inhibition at 200.072 g/ha (Yellow Foxtail [8]; 0.1785 lb/A): 0%
- inhibition at 1000.92 g/ha (Yellow Foxtail [8]; 0.893 lb/A): 10%
- inhibition at 5043.82 g/ha (Yellow Foxtail [8]; 4.5 lb/A): 100%
- inhibition at 40.0143 g/ha (Barnyardgrass [9]; 0.0357 lb/A): 0%
- inhibition at 200.072 g/ha (Barnyardgrass [9]; 0.1785 lb/A): 0%
- inhibition at 1000.92 g/ha (Barnyardgrass [9]; 0.893 lb/A): 65%
- inhibition at 5043.82 g/ha (Barnyardgrass [9]; 4.5 lb/A): 85%
- inhibition at 40.0143 g/ha (Velvetleaf [10]; 0.0357 lb/A): 55%
- inhibition at 200.072 g/ha (Velvetleaf [10]; 0.1785 lb/A): 75%
- inhibition at 1000.92 g/ha (Velvetleaf [10]; 0.893 lb/A): 100%
- inhibition at 5043.82 g/ha (Velvetleaf [10]; 4.5 lb/A): 100%
- inhibition at 40.0143 g/ha (Blackgrass; Table 4a): 0%
- inhibition at 40.0143 g/ha (Blackgrass; Table 5a): 0%
- inhibition at 200.072 g/ha (Blackgrass; Table 4a): 0%
- inhibition at 200.072 g/ha (Blackgrass; Table 5a): 35%
- inhibition at 1000.92 g/ha (Blackgrass; Table 4a): 50%
- inhibition at 1000.92 g/ha (Blackgrass; Table 5a): 65%
- inhibition at 5043.82 g/ha (Blackgrass; Table 4a): 30%
- inhibition at 5043.82 g/ha (Blackgrass; Table 5a): 100%
